Test results from publication PMC4414724 (Chemico-biological interactions, 2015).
Like-named read-outs stand apart in the source and are kept apart here. One block for each compound: values may come before it.

Assays:
[1] = target: rat liver alcohol dehydrogenase (Rattus norvegicus, UniProt P06757); experiment: Oxidation of alcohols by isolated rat liver alcohol dehydrogenase; conditions: for Km / V rel (Vmax relative to ethanol as substrate): 83 mM potassium phosphate, 40 mM KCl; for in vitro v rel: calculated from kinetic constants with Michaelis-Menten equation for 5 mM alcohol
rat liver ADH1 = conditions: cited from earlier work
[2] = tested on: microsomal ethanol oxidizing system (NADPH-dependent cytochrome P-450 enzymes); conditions: cited from earlier work
ethanol elimination = conditions: cited from earlier work
methanol metabolism = conditions: cited from earlier work
ADH3 = ADH3 (UniProt P12711); conditions: cited from earlier work
[3] = humans; cited from earlier work
[4] = cited from earlier work
rat liver ADH = conditions: read-out: in vitro Ki (competitive against alcohol); cited from earlier work
cytochrome P-450 = conditions: read-out: in vitro Ki; cited from earlier work
[5] = from inhibition by 1 mmole/kg 4-methylpyrazole
[6] = observed rate without inhibitors minus the rate with 1 mmole/kg 4-methylpyrazole
[7] = secondary alcohols, doses of 5–10 mmole/kg
[8] = uninhibited rate at higher 4-methylpyrazole and isobutyramide

Chain of rat liver alcohol dehydrogenase (P06757 2-376 limits assumed): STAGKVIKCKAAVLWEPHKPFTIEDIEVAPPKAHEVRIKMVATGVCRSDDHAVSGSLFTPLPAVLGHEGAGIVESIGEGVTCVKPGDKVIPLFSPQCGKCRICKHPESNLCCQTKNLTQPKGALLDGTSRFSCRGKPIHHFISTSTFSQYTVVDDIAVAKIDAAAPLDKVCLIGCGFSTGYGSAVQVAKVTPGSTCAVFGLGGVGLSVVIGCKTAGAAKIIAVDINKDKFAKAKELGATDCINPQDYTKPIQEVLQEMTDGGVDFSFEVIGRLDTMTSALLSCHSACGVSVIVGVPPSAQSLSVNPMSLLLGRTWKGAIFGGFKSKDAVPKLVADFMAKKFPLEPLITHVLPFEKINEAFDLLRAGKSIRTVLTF

Compound: CCC(C)O (centres unmarked) [2-Butanol, 2-butanol]
%ADH (estimated percentage of elimination due to ADH) [5]: 68%
Rate due to ADH (rat, in vivo): 1.7
in vivo rate of elimination (rat, in vivo): 2.5 ± 0.4 mmol/kg/h
kinetics of elimination in rats (order) (rat, in vivo): first order kinetics
10^4 k1 (first order, alcohol to ketone) (rat, in vivo, ip): 112 ± 17 min^−1
10^4 k2 (first order, elimination of ketone) (rat, in vivo, ip): 37 ± 4 min^−1
k2 (zero order, elimination of ketone) (rat, in vivo, ip): 1.1 ± 0.2 mmol/kg/h
r (rat, in vivo, ip): 0.74 ± 0.08 mL/g
Km ([1]; pH 7.3, 37 °C, 0.5 mM NAD+): 12 ± 6 mM
V rel (Vmax relative to ethanol as substrate) ([1]; pH 7.3, 37 °C, 0.5 mM NAD+): 0.48 ± 0.03
in vitro v rel [1]: 0.14
Vrel/K ([1]; pH 7.3, 37 °C, 0.5 mM NAD+): 0.04

Compound: CO [Methanol]
Rate (zero-order elimination) (fed rat, MP+AT, methanol 10 mmole/kg i.p.): 0.41 mmol/kg/h
time required to eliminate the dose (rat, in vivo): 15 h
Rate (zero-order elimination) (rat, in vivo, ip): 0.56 ± 0.01 mmol/kg/h
Vmax relative to ethanol (rat liver ADH1): 0.10
Km [2]: 22 mM

Compound: CCCCO [1-Butanol, 1-butanol]
%ADH (estimated percentage of elimination due to ADH) [5]: 56%
in vivo rate of elimination (rat, in vivo): 3.2 ± 0.4 mmol/kg/h
Km ([1]; pH 7.3, 37 °C, 0.5 mM NAD+): 0.14 ± 0.03 mM
V rel (Vmax relative to ethanol as substrate) ([1]; pH 7.3, 37 °C, 0.5 mM NAD+): 1.3 ± 0.1
in vitro v rel [1]: 1.3
Vrel/K ([1]; pH 7.3, 37 °C, 0.5 mM NAD+): 9.3

Inhibition of the ADH reactions ([1]; 10 mM pyrazole): almost totally inhibited
Compound: c1cn[nH]c1 [pyrazole, reference compound]

Compound: OC1CCCC1 [Cyclopentanol, cyclopentanol]
%ADH (estimated percentage of elimination due to ADH) [5]: 64%
Rate due to ADH [6]: 3.0
kinetics of elimination in rats (order) [7]: first order kinetics
V rel (Vmax relative to ethanol as substrate) ([1]; pH 7.3, 37 °C, 0.5 mM NAD+): 0.72 ± 0.04
in vitro v rel [1]: 0.68
Vrel/K ([1]; pH 7.3, 37 °C, 0.5 mM NAD+): 2.2

Compound: CCCO [1-Propanol, 1-propanol]
%ADH (estimated percentage of elimination due to ADH) [5]: 81%
Rate due to ADH (rat, in vivo): 4.3
in vivo rate of elimination (rat, in vivo): 5.3 ± 0.5 mmol/kg/h
kinetics of elimination in rats (order) (rat, in vivo): zero-order kinetics
r (fraction of body weight accessible to the alcohol) (rat, in vivo, ip): 0.67 ± 0.09 mL/g
Km ([1]; pH 7.3, 37 °C, 0.5 mM NAD+): 0.22 ± 0.03 mM
V rel (Vmax relative to ethanol as substrate) ([1]; pH 7.3, 37 °C, 0.5 mM NAD+): 0.95 ± 0.07
in vitro v rel [1]: 0.91
Vrel/K ([1]; pH 7.3, 37 °C, 0.5 mM NAD+): 4.3

Compound: Nc1nc[nH]n1 [3-Aminotriazole, 3-Amino-1,2,4-triazole]
inhibition of ethanol metabolism in rats (ethanol elimination): ~ 10%
inhibition of methanol metabolism (methanol metabolism): ~ 35%

Compound: CCC(C)=O [2-Butanone]
10^4 k2 (first order, elimination of ketone) (rat, in vivo, ip): 31 ± 2 min^−1
k2 (zero order, elimination of ketone) (rat, in vivo, ip): 1.3 mmol/kg/h
r (rat, in vivo, ip): 0.81 mL/g

Compound: CCO [Ethanol, ethanol]
%ADH (estimated percentage of elimination due to ADH) [5]: 89%
in vivo rate of elimination (rat, in vivo): 7.9 ± 1.0 mmol/kg/h
activity of ADH3 (ADH3): no detectable activity
Km [2]: 9.6 mM
possible contribution to the rate of ethanol metabolism [2]: 20–25%
rate of elimination [3]: about 2.2 mmol/kg•h
rate of elimination ([4]; fed rats): about 8 mmol/kg•h
Km of inhibitor-insensitive elimination [4, 8]: 21 mmol/kg
Vmax of inhibitor-insensitive elimination [4, 8]: 2.1 mmol/kg/h
Km ([1]; pH 7.3, 37 °C, 0.5 mM NAD+): 0.64 ± 0.22 mM
V rel (Vmax relative to ethanol as substrate) ([1]; pH 7.3, 37 °C, 0.5 mM NAD+): (1.0)
in vitro v rel [1]: 0.88
Vrel/K ([1]; pH 7.3, 37 °C, 0.5 mM NAD+): 1.6

Compound: CCC(O)CC [3-Pentanol, 3-pentanol]
%ADH (estimated percentage of elimination due to ADH) [5]: 90%
Rate due to ADH [6]: 3.6
kinetics of elimination in rats (order) [7]: first order kinetics
V rel (Vmax relative to ethanol as substrate) ([1]; pH 7.3, 37 °C, 0.5 mM NAD+): 0.69 ± 0.03
in vitro v rel [1]: 0.35
Vrel/K ([1]; pH 7.3, 37 °C, 0.5 mM NAD+): 0.14

Compound: Cc1cn[nH]c1 [4-methylpyrazole]
Ki (rat liver ADH): 0.11 µM
effective, in vivo, competitive Ki (ethanol elimination; in the rat): 1.4 µmol/kg
inhibition of elimination of ethanol (ethanol elimination; inhibitor dose 1 mmole/kg, ethanol 20 mmole/kg): 87%
Ki (cytochrome P-450): 5700 µM

Compound: CC(O)CCO (centres unmarked) [1,3-Butanediol, 1,3-butanediol]
in vivo rate of elimination (data for zero order elimination, rats without inhibitors): 5.0 ± 0.3 mmol/kg/h
Rate due to ADH (male, rat, in vivo): 4.1
r (fraction of body weight accessible to the alcohol) (male, rat, in vivo, ip): 0.82 ± 0.05 mL/g
%ADH (estimated percentage of elimination due to ADH) (rat, in vivo): 82%
in vitro v rel [1]: 0.44

Compound: CC(C)CCO [3-Methyl-1-butanol, 3-methyl-1-butanol]
%ADH (estimated percentage of elimination due to ADH) [5]: 61%
in vivo rate of elimination (male, Sprague-Dawley, rat, in vivo): 4.6 ± 0.8 mmol/kg/h
V rel (Vmax relative to ethanol as substrate) ([1]; pH 7.3, 37 °C, 0.5 mM NAD+): 0.54 ± 0.02
in vitro v rel [1]: 0.53
Vrel/K ([1]; pH 7.3): 13
